Patent US10246453B2, “Benzenesulfonamide compounds and their use as therapeutic agents” (Xenon Pharmaceuticals Inc., priority 2016, dated 2019)
Counter-ions that a name gives are not always drawn.

Key:
NaV1.1 = NaV1.1 (Homo sapiens (Human), UniProt P35498); test: Sodium Influx Assay (Flux), NaV1.1; type: cell-based; settings: Trex HEK293 cells, ANG2 dye; arithmetic mean
NaV1.6 = NaV1.6 (Homo sapiens (Human), UniProt Q9UQD0); test: Sodium Influx Assay (Flux), NaV1.6; settings: read-out: Flux NaV1.6 IC50; Trex HEK293 cells, ANG2 dye; arithmetic mean
NaV1.5 = NaV1.5 (Homo sapiens (Human), UniProt Q14524); test: Sodium Influx Assay (Flux), NaV1.5; settings: read-out: Flux NaV1.5 IC50; Trex HEK293 cells, ANG2 dye; arithmetic mean
Sequence of NaV1.5 (Q14524 other isoform, or with tags, fused parts or gaps): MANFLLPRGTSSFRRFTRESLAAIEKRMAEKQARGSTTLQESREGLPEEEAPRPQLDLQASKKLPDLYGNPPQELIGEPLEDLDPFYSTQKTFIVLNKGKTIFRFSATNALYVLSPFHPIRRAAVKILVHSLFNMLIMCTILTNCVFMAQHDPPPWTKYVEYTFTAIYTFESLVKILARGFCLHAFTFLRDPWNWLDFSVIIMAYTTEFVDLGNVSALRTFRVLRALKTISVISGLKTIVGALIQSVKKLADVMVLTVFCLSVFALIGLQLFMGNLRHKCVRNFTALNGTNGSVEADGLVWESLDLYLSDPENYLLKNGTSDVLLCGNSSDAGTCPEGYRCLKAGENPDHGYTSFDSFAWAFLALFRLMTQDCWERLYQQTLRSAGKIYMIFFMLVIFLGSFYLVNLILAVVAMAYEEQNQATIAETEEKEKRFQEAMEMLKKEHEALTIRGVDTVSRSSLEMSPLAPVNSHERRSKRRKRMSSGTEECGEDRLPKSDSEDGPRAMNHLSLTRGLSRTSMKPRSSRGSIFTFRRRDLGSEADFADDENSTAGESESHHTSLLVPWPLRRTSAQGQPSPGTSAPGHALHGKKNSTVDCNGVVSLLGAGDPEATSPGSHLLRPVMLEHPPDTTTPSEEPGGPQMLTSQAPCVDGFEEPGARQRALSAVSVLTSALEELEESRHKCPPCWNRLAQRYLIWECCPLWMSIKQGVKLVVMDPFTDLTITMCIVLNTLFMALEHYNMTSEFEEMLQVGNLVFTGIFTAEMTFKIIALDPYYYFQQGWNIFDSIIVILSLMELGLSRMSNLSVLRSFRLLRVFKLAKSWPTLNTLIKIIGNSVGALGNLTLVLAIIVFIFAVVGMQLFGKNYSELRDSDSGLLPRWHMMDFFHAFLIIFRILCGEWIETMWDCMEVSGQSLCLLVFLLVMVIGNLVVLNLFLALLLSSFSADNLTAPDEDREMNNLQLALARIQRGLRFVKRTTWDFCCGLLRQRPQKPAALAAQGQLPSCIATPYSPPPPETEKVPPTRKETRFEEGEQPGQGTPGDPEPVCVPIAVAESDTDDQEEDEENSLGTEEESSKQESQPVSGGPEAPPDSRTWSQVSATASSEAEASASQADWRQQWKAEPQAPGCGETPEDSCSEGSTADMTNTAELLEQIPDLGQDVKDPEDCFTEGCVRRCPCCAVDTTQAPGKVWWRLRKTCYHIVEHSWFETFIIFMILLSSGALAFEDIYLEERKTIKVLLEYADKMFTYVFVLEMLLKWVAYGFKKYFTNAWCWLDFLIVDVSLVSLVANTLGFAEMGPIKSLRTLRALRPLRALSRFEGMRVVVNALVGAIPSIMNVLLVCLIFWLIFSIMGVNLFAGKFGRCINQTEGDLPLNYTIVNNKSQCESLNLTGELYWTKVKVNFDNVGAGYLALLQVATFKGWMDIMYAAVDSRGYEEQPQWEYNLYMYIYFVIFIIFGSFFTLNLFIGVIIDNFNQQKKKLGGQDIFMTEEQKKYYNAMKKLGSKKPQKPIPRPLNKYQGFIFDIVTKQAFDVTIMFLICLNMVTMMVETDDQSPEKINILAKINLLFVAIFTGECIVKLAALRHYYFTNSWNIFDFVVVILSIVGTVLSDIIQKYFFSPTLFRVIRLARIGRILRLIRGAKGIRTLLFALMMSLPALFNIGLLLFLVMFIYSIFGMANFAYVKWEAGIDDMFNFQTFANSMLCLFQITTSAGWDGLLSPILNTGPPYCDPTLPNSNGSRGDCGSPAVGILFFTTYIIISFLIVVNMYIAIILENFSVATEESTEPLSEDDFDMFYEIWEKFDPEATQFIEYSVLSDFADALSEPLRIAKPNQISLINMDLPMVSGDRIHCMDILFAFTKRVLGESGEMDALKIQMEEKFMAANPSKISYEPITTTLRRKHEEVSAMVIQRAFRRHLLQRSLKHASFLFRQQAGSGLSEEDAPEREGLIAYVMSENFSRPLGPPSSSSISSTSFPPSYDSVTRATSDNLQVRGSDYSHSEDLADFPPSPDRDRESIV

Structure (SMILES) | IC50 (NaV1.1) [µM] | IC50 (NaV1.6) [nM] | IC50 (NaV1.5) [µM]
O=S(=O)(Nc1nccs1)c1ccc(OC2CCN(Cc3ccc(F)cc3)CC2)c(Cl)c1 [Example 22, 3-chloro-4-((1-(4-fluorobenzyl)piperidin-4-yl)oxy)-N-(thiazol-2-yl)benzenesulfonamide 2,2,2-trifluoroacetate] | 14.8 | 3640 | 16.1
Cc1cc(S(=O)(=O)Nc2cscn2)c(F)cc1N(C)[C@H]1CCN(Cc2cccc(C)c2F)C1 [Example 127, (S)-2-fluoro-4-((1-(2-fluoro-3-methylbenzyl)pyrrolidin-3-yl)(methyl)amino)-5-methyl-N-(thiazol-4-yl)benzenesulfonamide 2,2,2-trifluoroacetate] | 10.7 | 520 | 10.1
Cc1nc(CN2CC[C@H](N(C)c3cc(F)c(S(=O)(=O)Nc4cscn4)cc3C)C2)cs1 [Example 110, (S)-2-fluoro-5-methyl-4-(methyl(1-((2-methylthiazol-4-yl)methyl)pyrrolidin-3-yl)amino)-N-(thiazol-4-yl)benzenesulfonamide formate] | > 30 | 262 | > 30
Cc1cc(S(=O)(=O)Nc2cscn2)c(F)cc1N(C)[C@H]1CCN(Cc2ccccc2C(F)F)C1 [Example 112, (S)-4-((1-(2-(difluoromethyl)benzyl)-pyrrolidin-3-yl)(methyl)amino)-2-fluoro-5-methyl-N-(thiazol-4-yl)benzenesulfonamide] | 4.6 | 773 | 8.19
CC1(Nc2ccc(S(=O)(=O)Nc3cscn3)cc2Cl)CN(Cc2ccccc2)C1 [Example 255, 4-((1-benzyl-3-methylazetidin-3-yl)amino)-3-chloro-N-(thiazol-4-yl)benzenesulfonamide 2,2,2-trifluoroacetate] | 9.14 | 3700 | 12.7
O=S(=O)(Nc1nccs1)c1ccc(O[C@H]2C[C@H]3CC[C@@H](C2)N3Cc2ccccc2)c(Cl)c1 [Example 15, 4-(((1R,3r,5S)-8-benzyl-8-azabicyclo[3.2.1]octan-3-yl)oxy)-3-chloro-N-(thiazol-2-yl)benzenesulfonamide] | 9.23 | 2570 | 23.9
Cc1c(N(C)[C@H]2CCN(Cc3cc(F)ccc3F)C2)cc(F)c(S(=O)(=O)Nc2cscn2)c1F [Example 240, (S)-4-((1-(2,5-difluorobenzyl)pyrrolidin-3-yl)(methyl)amino)-2,6-difluoro-3-methyl-N-(thiazol-4-yl)benzenesulfonamide 2,2,2-trifluoroacetate] | 8.06 | 93 | 7.46
O=S(=O)(Nc1nccs1)c1ccc(OC2CCN(C3CCc4ccccc43)CC2)c(Cl)c1 (stereo not drawn) [Example 49, 3-chloro-4-((1-(2,3-dihydro-1H-inden-1-yl)piperidin-4-yl)oxy)-N-(thiazol-2-yl)benzenesulfonamide 2,2,2-trifluoroacetate] | 5.59 | 491 | 5.4
Cc1cc(S(=O)(=O)Nc2cscn2)c(F)cc1N(C)[C@H]1CCN(Cc2ccn(CC(F)(F)F)n2)C1 [Example 118, (S)-2-fluoro-5-methyl-4-(methyl(1-((1-(2,2,2-trifluoroethyl)-1H-pyrazol-3-yl)methyl)pyrrolidin-3-yl)amino)-N-(thiazol-4-yl)benzenesulfonamide] | 12.9 | 58 | > 30
C[C@@H]1C[C@@H](Oc2ccc(S(=O)(=O)Nc3nccs3)cc2Cl)CCN1Cc1ccccc1 (relative stereo) [Example 73, 4-((trans-1-benzyl-2-methylpiperidin-4-yl)oxy)-3-chloro-N-(thiazol-2-yl)benzenesulfonamide] | 5.85 | 1880 | 13.1
CC1(C)CN(Cc2cc(Cl)cc(Cl)c2)CCC1Oc1ccc(S(=O)(=O)Nc2ncns2)cc1Cl (stereo not drawn) [Example 4, 3-chloro-4-((1-(3,5-dichlorobenzyl)-3,3-dimethylpiperidin-4-yl)oxy)-N-(1,2,4-thiadiazol-5-yl)benzenesulfonamide 2,2,2-trifluoroacetate] | > 30 | > 30000 | 11
Cc1cc(S(=O)(=O)Nc2cscn2)c(F)cc1N(C)[C@H]1CCN([C@H]2C[C@H](c3ccccc3)C2)C1 [Example 117, 2-fluoro-5-methyl-4-(methyl((S)-1-((1r,3S)-3-phenylcyclobutyl)-pyrrolidin-3-yl)amino)-N-(thiazol-4-yl)benzenesulfonamide formate] | 2.26 | 1440 | 3.09
CN(c1ccc(S(=O)(=O)Nc2ncns2)cc1Cl)[C@H]1CCN(Cc2cccc(Cl)c2F)C1 [Example 32, (S)-3-chloro-4-((1-(3-chloro-2-fluorobenzyl)pyrrolidin-3-yl)(methyl)amino)-N-(1,2,4-thiadiazol-5-yl)benzenesulfonamide] | 6.55 | 47 | 7.41

More lines, main results first:

IC50 (NaV1.1) [µM] | IC50 (NaV1.6) [nM] | Structure (SMILES) | IC50 (NaV1.5) [µM]
> 30 | 185 | Cc1cc(S(=O)(=O)Nc2cscn2)c(F)cc1N(C)[C@H]1CCN(Cc2ccn(CC(F)F)n2)C1 [Example 153, (S)-4-((1-((1-(2,2-difluoroethyl)-1H-pyrazol-3-yl)methyl)pyrrolidin-3-yl)(methyl)amino)-2-fluoro-5-methyl-N-(thiazol-4-yl)benzenesulfonamide 2,2,2-trifluoroacetate] | > 30
10.2 | 47 | Cc1c(N(C)[C@H]2CCN(Cc3cccc(F)c3)C2)cc(F)c(S(=O)(=O)Nc2cscn2)c1F [Example 235, (S)-2,6-difluoro-4-((1-(3-fluorobenzyl)pyrrolidin-3-yl)(methyl)amino)-3-methyl-N-(thiazol-4-yl)benzenesulfonamide formate] | 15.4
5.36 | 1460 | CN(c1cc(F)c(S(=O)(=O)Nc2cscn2)cc1Cl)[C@H]1CCN(Cc2ccccc2Cl)C1 [Example 198, (S)-5-chloro-4-((1-(2-chlorobenzyl)pyrrolidin-3-yl)(methyl)amino)-2-fluoro-N-(thiazol-4-yl)benzenesulfonamide] | 4.7
9.63 | 515 | Cc1cc(S(=O)(=O)Nc2cscn2)c(F)cc1N(C)[C@H]1CCN(Cc2nc(C(C)C)cs2)C1 [Example 145, (S)-2-fluoro-4-((1-((4-isopropylthiazol-2-yl)methyl)pyrrolidin-3-yl)(methyl)amino)-5-methyl-N-(thiazol-4-yl)benzenesulfonamide] | 17.1
> 30 | 185 | Cc1cc(S(=O)(=O)Nc2cscn2)c(F)cc1N(C)[C@H]1CCN([C@H]2CCc3ccccc32)C1 [Example 128, 4-(((S)-1-((S)-2,3-dihydro-1H-inden-1-yl)pyrrolidin-3-yl)(methyl)amino)-2-fluoro-5-methyl-N-(thiazol-4-yl)benzenesulfonamide] | 22.5
23.2 | 260 | CN(c1ccc(S(=O)(=O)Nc2ncns2)cc1Cl)[C@H]1CCN(Cc2cc(F)ccc2F)C1 [Example 325, (S)-3-chloro-4-((1-(2,5-difluorobenzyl)pyrrolidin-3-yl)(methyl)amino)-N-(1,2,4-thiadiazol-5-yl)benzenesulfonamide] | 27
7.79 | 3670 | CN(c1cc(F)c(S(=O)(=O)Nc2cscn2)cc1Cl)[C@H]1CCN(C2Cc3ccccc3C2)C1 [Example 166, (S)-5-chloro-4-((1-(2,3-dihydro-1H-inden-2-yl)pyrrolidin-3-yl)(methyl)amino)-2-fluoro-N-(thiazol-4-yl)benzene-sulfonamide formate] | 10.1
5.74 | 3320 | Cc1ccc(CN2CC[C@H](N(C)c3cc(F)c(S(=O)(=O)Nc4cscn4)cc3Cl)C2)cc1 [Example 201, (S)-5-chloro-2-fluoro-4-(methyl(1-(4-methylbenzyl)pyrrolidin-3-yl)amino)-N-(thiazol-4-yl)benzenesulfonamide] | 15
12.1 | 412 | Cc1cc(S(=O)(=O)Nc2cscn2)c(F)cc1N(C)[C@H]1CCN(Cc2nc(C3CC3)cs2)C1 [Example 134, (S)-4-((1-((4-cyclopropylthiazol-2-yl)methyl)pyrrolidin-3-yl)(methyl)amino)-2-fluoro-5-methyl-N-(thiazol-4-yl)benzenesulfonamide] | > 30
> 30 | 5380 | CN(c1cc(F)c(S(=O)(=O)Nc2cscn2)cc1Cl)[C@H]1CCN(Cc2ncc3ccccn23)C1 [Example 184, (S)-5-chloro-2-fluoro-4-((1-(imidazo[1,5-a]pyridin-3-ylmethyl)pyrrolidin-3-yl)(methyl)amino)-N-(thiazol-4-yl)benzene-sulfonamide] | > 30
> 30 | 10200 | Cc1cc(S(=O)(=O)Nc2cscn2)c(F)cc1N(C)[C@H]1CCN(Cc2cocn2)C1 [Example 143, (S)-2-fluoro-5-methyl-4-(methyl(1-(oxazol-4-ylmethyl)pyrrolidin-3-yl)amino)-N-(thiazol-4-yl)benzenesulfonamide] | > 30
> 30 | 410 | Cc1cc(S(=O)(=O)Nc2cscn2)c(F)cc1N(C)[C@H]1CCN(Cc2cc3n(n2)CCCC3)C1 [Example 151, (S)-2-fluoro-5-methyl-4-(methyl(1-((4,5,6,7-tetrahydropyrazolo[1,5-a]pyridin-2-yl)methyl)pyrrolidin-3-yl)amino)-N-(thiazol-4-yl)benzenesulfonamide] | > 30
> 30 | 954 | Cc1cn(C)c(CN2CC[C@H](N(C)c3cc(F)c(S(=O)(=O)Nc4cscn4)cc3C)C2)n1 [Example 150, (S)-4-((1-((1,4-dimethyl-1H-imidazol-2-yl)methyl)pyrrolidin-3-yl)(methyl)amino)-2-fluoro-5-methyl-N-(thiazol-4-yl)benzenesulfonamide] | > 30
